# Results as given in ChEMBL document CHEMBL1201862, “PubChem BioAssay data set” (2004).
#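 96-well plates; 48 h exposure; 5 concentrations. Endpoints by linear interpolation between flanking doses. Not reached: highest tested concentration assigned. GI50: concentration for 50% inhibition of growth.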 The source made the active and inactive calls. Rule as the data show it: active = GI50 up to about 1.1 µM and inactive = higher.
# Key:
# Test in all cases: growth of human tumour cells (NCI), 48 h
# A549 = system: A549
# ACHN = system: ACHN
# CAKI-1 = system: CAKI-1
# CCRF-CEM = system: CCRF-CEM
# COLO 205 = system: COLO 205
# HL-60 = system: HL-60
# HOP-62 = system: HOP-62
# HOP-92 = system: HOP-92
# IGROV-1 = system: IGROV-1
# K562 = system: K562
# M14 = system: M14
# MCF7 = system: MCF7
# MDA-MB-435 = system: MDA-MB-435
# MOLT-4 = system: MOLT-4
# Malme-3M = system: Malme-3M
# NCI-H23 = system: NCI-H23
# NCI-H460 = system: NCI-H460
# NCI/ADR-RES = system: NCI/ADR-RES
# OVCAR-4 = system: OVCAR-4
# OVCAR-5 = system: OVCAR-5
# RPMI-8226 = system: RPMI-8226
# RXF 393 = system: RXF 393
# SF-268 = system: SF-268
# SK-MEL-28 = system: SK-MEL-28
# SK-MEL-2 = system: SK-MEL-2
# SK-MEL-5 = system: SK-MEL-5
# SK-OV-3 = system: SK-OV-3
# SNB-75 = system: SNB-75
# SR = system: SR
# SW-620 = system: SW-620
# T47D = system: T47D
# U-251 = system: U-251
# UACC-62 = system: UACC-62
# A498 = system: A498
# DU-145 = system: DU-145
# HCT-116 = system: HCT-116
# HCT-15 = system: HCT-15
# HT-29 = system: HT-29
# Hs-578T = system: Hs-578T
# KM12 = system: KM12
# MDA-MB-231 = system: MDA-MB-231
# MDA-N = system: MDA-N
# NCI-H522 = system: NCI-H522
# OVCAR-3 = system: OVCAR-3
# OVCAR-8 = system: OVCAR-8
# PC-3 = system: PC-3
# SF-295 = system: SF-295
# SN12C = system: SN12C
# 786-0 = system: 786-0
# EKVX = system: EKVX
# HCC 2998 = system: HCC 2998
# SNB-19 = system: SNB-19
# TK-10 = system: TK-10
# UACC-257 = system: UACC-257
# UO-31 = system: UO-31
structure (smiles),measurement,setting,value
CCN1C(=O)CS/C1=N/NC(=O)C(O)(c1ccccc1)C1C=CC=CC1 (stereo not given),GI50,A549,> 10 µM (inactive)
same,GI50,ACHN,> 10 µM (inactive)
same,GI50,CAKI-1,> 10 µM (inactive)
same,GI50,CCRF-CEM,> 10 µM (inactive)
same,GI50,COLO 205,> 10 µM (inactive)
same,GI50,HL-60,> 10 µM (inactive)
same,GI50,HOP-62,> 10 µM (inactive)
same,GI50,HOP-92,> 10 µM (inactive)
same,GI50,IGROV-1,> 10 µM (inactive)
same,GI50,K562,> 10 µM (inactive)
same,GI50,M14,> 10 µM (inactive)
same,GI50,MCF7,> 10 µM (inactive)
same,GI50,MDA-MB-435,> 10 µM (inactive)
same,GI50,MOLT-4,> 10 µM (inactive)
same,GI50,Malme-3M,> 10 µM (inactive)
same,GI50,NCI-H23,> 10 µM (inactive)
same,GI50,NCI-H460,> 10 µM (inactive)
same,GI50,NCI/ADR-RES,> 10 µM (inactive)
same,GI50,OVCAR-4,> 10 µM (inactive)
same,GI50,OVCAR-5,> 10 µM (inactive)
same,GI50,RPMI-8226,> 10 µM (inactive)
same,GI50,RXF 393,> 10 µM (inactive)
same,GI50,SF-268,> 10 µM (inactive)
same,GI50,SK-MEL-28,> 10 µM (inactive)
same,GI50,SK-MEL-2,> 10 µM (inactive)
same,GI50,SK-MEL-5,> 10 µM (inactive)
same,GI50,SK-OV-3,> 10 µM (inactive)
same,GI50,SNB-75,> 10 µM (inactive)
same,GI50,SR,> 10 µM (inactive)
same,GI50,SW-620,> 10 µM (inactive)
same,GI50,T47D,> 10 µM (inactive)
same,GI50,U-251,> 10 µM (inactive)
same,GI50,UACC-62,> 10 µM (inactive)
C1=C(N2CCOCC2)/C(=C2\SC(=N/c3ccccc3)/C(=N\c3ccccc3)N2c2ccccc2)CC1,GI50,A498,94.4 µM (inactive)
same,GI50,CAKI-1,51.8 µM (inactive)
same,GI50,CCRF-CEM,19.7 µM (inactive)
same,GI50,COLO 205,> 100 µM (inactive)
same,GI50,DU-145,> 100 µM (inactive)
same,GI50,HCT-116,> 100 µM (inactive)
same,GI50,HCT-15,> 100 µM
same,GI50,HL-60,> 10 µM (inactive)
same,GI50,HOP-62,28.9 µM (inactive)
same,GI50,HOP-92,34.8 µM (inactive)
same,GI50,HT-29,> 100 µM (inactive)
same,GI50,Hs-578T,26.8 µM (inactive)
same,GI50,IGROV-1,> 100 µM (inactive)
same,GI50,K562,> 100 µM (inactive)
same,GI50,KM12,> 100 µM (inactive)
same,GI50,M14,38.2 µM (inactive)
same,GI50,MDA-MB-231,61.5 µM (inactive)
same,GI50,MDA-MB-435,> 100 µM (inactive)
same,GI50,MDA-N,> 100 µM (inactive)
same,GI50,MOLT-4,20.9 µM (inactive)
same,GI50,Malme-3M,> 100 µM (inactive)
same,GI50,NCI-H23,> 100 µM (inactive)
same,GI50,NCI-H460,> 100 µM (inactive)
same,GI50,NCI-H522,29 µM (inactive)
same,GI50,NCI/ADR-RES,> 100 µM (inactive)
same,GI50,OVCAR-3,52.4 µM (inactive)
same,GI50,OVCAR-8,62.5 µM (inactive)
same,GI50,PC-3,> 100 µM (inactive)
same,GI50,RPMI-8226,> 100 µM (inactive)
same,GI50,SF-295,49.2 µM (inactive)
same,GI50,SK-MEL-28,75.2 µM (inactive)
same,GI50,SK-MEL-2,89.3 µM (inactive)
same,GI50,SK-MEL-5,> 100 µM (inactive)
same,GI50,SK-OV-3,34.1 µM (inactive)
same,GI50,SN12C,> 100 µM (inactive)
same,GI50,SNB-75,23.1 µM (inactive)
same,GI50,SR,67.5 µM (inactive)
same,GI50,T47D,> 100 µM (inactive)
same,GI50,U-251,68.4 µM (inactive)
same,GI50,UACC-62,18.7 µM (inactive)
NS(=O)(=O)c1ccc(/C=C/c2ccc(O)c(O)c2)cc1,GI50,786-0,34.7 µM (inactive)
same,GI50,A498,54.3 µM (inactive)
same,GI50,COLO 205,21.2 µM (inactive)
same,GI50,DU-145,68.7 µM (inactive)
same,GI50,EKVX,21.2 µM (inactive)
same,GI50,HCC 2998,18.7 µM (inactive)
same,GI50,HCT-116,25.5 µM (inactive)
same,GI50,HOP-62,47.2 µM (inactive)
same,GI50,M14,26.5 µM (inactive)
same,GI50,MCF7,20.8 µM (inactive)
same,GI50,MDA-MB-231,19.6 µM (inactive)
same,GI50,MDA-N,18.3 µM (inactive)
same,GI50,Malme-3M,35.3 µM (inactive)
same,GI50,NCI-H460,27.3 µM (inactive)
same,GI50,NCI/ADR-RES,23.1 µM (inactive)
same,GI50,OVCAR-3,31.6 µM (inactive)
same,GI50,OVCAR-5,31.6 µM (inactive)
same,GI50,PC-3,19.1 µM (inactive)
same,GI50,RXF 393,69.3 µM (inactive)
same,GI50,SF-295,29.8 µM (inactive)
same,GI50,SK-MEL-28,23.2 µM (inactive)
same,GI50,SK-MEL-2,22.5 µM (inactive)
same,GI50,SK-MEL-5,10.8 µM (inactive)
same,GI50,SK-OV-3,17.3 µM (inactive)
same,GI50,SN12C,18.7 µM (inactive)
same,GI50,SNB-19,34.4 µM (inactive)
same,GI50,SNB-75,20.4 µM (inactive)
same,GI50,SW-620,22 µM (inactive)
same,GI50,T47D,14.5 µM (inactive)
same,GI50,TK-10,60.7 µM (inactive)
same,GI50,UACC-257,61.5 µM (inactive)
same,GI50,UO-31,12.3 µM (inactive)
